Laboratory results reported in article PMC12257073 (Cancer Research Communications, 2025).
Values joined by “and” are separate entries in the source; they are usually repeats but may differ in a detail not shown here. Equal values may be shown once. Read-outs that look alike come from different tables or passages of the source.

Columns and labels:
[1] = Treatment duration and reasons off treatment
[2] = system: newly diagnosed AML with mutations in TP53 and/or complex karyotype; assay: Overall survival and duration of response (Kaplan–Meier); assay type: in vivo, human; settings: for Response duration: No. of events / Response duration: median (95% CI): patients who achieved CR/CRh/CRi
Method: Demographics were summarized by descriptive statistics. Duration of response was calculated from the date when composite CR was achieved to […], censoring patients who remained alive and relapse-free at the time of the last follow-up. OS was calculated from treatment start to all-cause death, censoring patients who were alive at the time of the last follow-up. Kaplan–Meier methodology was used to assess OS and duration of response.

[3] = system: newly diagnosed AML with mutations in TP53 and/or complex karyotype
Method: Dose-limiting toxicities (DLT) were evaluated to establish the dose brought forward for an expansion cohort (phase 2).
The primary endpoint was achievement of CR within six cycles of therapy. Secondary endpoints included toxicity, duration of response, OS, and the proportion of eligible patients who effectively transitioned to allogeneic stem cell transplantation. Exploratory endpoints included pharmacokinetics (PK), correlative genetic, and biochemical data; correlations between morphologic remission, spectral flow cytometry, and mutational remission; and duration of remission or survival. […] Adverse events (AE) were graded according to the NCI Common Terminology Criteria for Adverse Events version 4.0 ([27]).
The phase 1b portion of the study used a standard 3 + 3 design with dose-escalation based on DLT. […] In the first stage, if four or more of 12 patients achieved CR, then an additional 21 patients would be enrolled for a total of 33 patients. At the end of the study, if 12 or more of all 33 patients achieved CR, then the null hypothesis would be rejected.

[4] = TP53-mutated patients, TP-0903 + decitabine, n = 20
[5] = TP53-mutated patients, TP-0903 + decitabine
[6] = group 1, TP-0903 37 mg/day + decitabine, n = 15
[7] = group 1, TP-0903 37 mg/day + decitabine
[8] = group 2, TP-0903 25 mg/day + decitabine, n = 12
[9] = group 2, TP-0903 25 mg/day + decitabine
[10] = overall, TP-0903 + decitabine, n = 27
[11] = group 1, 37 mg TP-0903 + decitabine, 15 patients
[12] = group 2, 25 mg TP-0903 + decitabine, 12 patients

CN1CCN(Cc2ccc(Nc3ncc(Cl)c(Nc4ccccc4S(=O)(=O)N(C)C)n3)cc2)CC1.O=C(O)C(O)C(O)C(=O)O.O=C(O)C(O)C(O)C(=O)O [TP-0903, 2-(5-chloro-2-(4-((4-methylpiperazin-1-yl)methyl)phenylamino)pyrimidin-4-yl)amino-N,N-dimethylbenzene-1-sulfonamide di-tartrate salt]
Treatment discontinuation: AEs ([1]; group 1, 37 mg TP-0903 + decitabine): 13%
Off treatment for reason: Adverse event ([1]; group 1, 37 mg, N = 15): 2 (13.3) n (%)
Treatment discontinuation: AEs ([1]; group 2, 25 mg TP-0903 + decitabine): 17%
Off treatment for reason: Adverse event ([1]; group 2, 25 mg, N = 12): 2 (16.7) n (%)
Off treatment for reason: Adverse event ([1]; overall, N = 27): 4 (14.8) n (%)
OS: No. of events (deaths) [2, 4]: 13
OS: median (95% CI) [2, 4]: 10.0 (2.0–20.6) months
Response duration: No. of events [2, 5]: 6
Response duration: median (95% CI) [2, 5]: 10.6 (3.3–NE) months
OS: No. of events (deaths) [2, 6]: 10
OS: median (95% CI) [2, 6]: 7.6 (2.0–20.6) months
Response duration: No. of events [2, 7]: 3
Response duration: median (95% CI) [2, 7]: 13.8 months and 13.8 (7.3–NE) months
OS: No. of events (deaths) [2, 8]: 7
OS: median (95% CI) [2, 8]: 7.5 months and 7.5 (1.1 – NE) months
Response duration: No. of events [2, 9]: 5
Response duration: median (95% CI) [2, 9]: 4.6 months and 4.6 (1.8–NE) months
OS: No. of events (deaths) [2, 10]: 17
OS: median (95% CI) [2, 10]: 7.6 (3.3–13.4) months
Response duration: No. of events ([2]; overall, TP-0903 + decitabine): 8
Response duration: median (95% CI) ([2]; overall, TP-0903 + decitabine): 7.3 (3.3–13.8) months
Best response by 6 cycles: CR [3, 4]: 5 (25) no. (%)
Best response by 6 cycles: CRh [3, 4]: 4 (20) no. (%)
Best response by 6 cycles: CRi [3, 4]: 0 (0) no. (%)
Best response by 6 cycles: MLFS [3, 4]: 2 (10) no. (%)
Best response by 6 cycles: NE (not evaluable) [3, 4]: 4 (20) no. (%)
Best response by 6 cycles: SD [3, 4]: 4 (20) no. (%)
Best response by 6 cycles: Treatment failure [3, 4]: 1 (5) no. (%)
Overall composite remission rate (CR/CRh/CRi) [3, 4]: 9 (45, 23.1–68.5) no. (%, 95% CI)
Overall response rate (CR/CRh/CRi/MLFS) [3, 4]: 11 (55, 31.5–76.9) no. (%, 95% CI)
CR in patients without a TP53 mutation ([3]; five patients without a TP53 mutation, TP-0903 + decitabine): none of the five patients without a TP53 mutation achieved CR
Overall composite remission rate (CR/CRi/CRh) ([3]; group 1, 37 mg TP-0903 + decitabine, 5/15): 33.3%
CR rate within six cycles (primary endpoint) [3, 11]: 13.3% and 13%
CRh rate [3, 11]: 20%
MLFS rate [3, 11]: 7%
Stable disease (SD) rate [3, 11]: 33%
Treatment failure rate [3, 11]: 13%
Best response by 6 cycles: CR [3, 6]: 2 (13.3) no. (%)
Best response by 6 cycles: CRh [3, 6]: 3 (20) no. (%)
Best response by 6 cycles: CRi [3, 6]: 0 (0) no. (%)
Best response by 6 cycles: MLFS [3, 6]: 1 (6.7) no. (%)
Best response by 6 cycles: NE (not evaluable) [3, 6]: 2 (13.3) no. (%)
Best response by 6 cycles: SD [3, 6]: 5 (33.3) no. (%)
Best response by 6 cycles: Treatment failure [3, 6]: 2 (13.3) no. (%)
Overall composite remission rate (CR/CRh/CRi) [3, 6]: 5 (33.3, 11.8–61.6) no. (%, 95% CI)
Overall response rate (CR/CRh/CRi/MLFS) [3, 6]: 6 (40, 16.3–67.7) no. (%, 95% CI)
Overall composite remission rate (CR/CRi/CRh) ([3]; group 2, 25 mg TP-0903 + decitabine, 6/12): 50%
CR rate within six cycles (primary endpoint) [3, 12]: 25%
CRh rate [3, 12]: 8%
CRi rate [3, 12]: 17%
MLFS rate [3, 12]: 8%
Patients who stopped treatment within four and 5 days because of AEs [3, 12]: 17%
Stable disease (SD) rate [3, 12]: 25%
Best response by 6 cycles: CR [3, 8]: 3 (25) no. (%)
Best response by 6 cycles: CRh [3, 8]: 1 (8.3) no. (%)
Best response by 6 cycles: CRi [3, 8]: 2 (16.7) no. (%)
Best response by 6 cycles: MLFS [3, 8]: 1 (8.3) no. (%)
Best response by 6 cycles: NE (not evaluable) [3, 8]: 2 (16.7) no. (%)
Best response by 6 cycles: SD [3, 8]: 3 (25) no. (%)
Best response by 6 cycles: Treatment failure [3, 8]: 0 (0) no. (%)
Overall composite remission rate (CR/CRh/CRi) [3, 8]: 6 (50, 21.1–78) no. (%, 95% CI)
Overall response rate (CR/CRh/CRi/MLFS) [3, 8]: 7 (58.3, 27.7–84.8) no. (%, 95% CI)
Best response by 6 cycles: CR [3, 10]: 5 (18.5) no. (%)
Best response by 6 cycles: CRh [3, 10]: 4 (14.8) no. (%)
Best response by 6 cycles: CRi [3, 10]: 2 (7.4) no. (%)
Best response by 6 cycles: MLFS [3, 10]: 2 (7.4) no. (%)
Best response by 6 cycles: NE (not evaluable) [3, 10]: 4 (14.8) no. (%)
Best response by 6 cycles: SD [3, 10]: 8 (29.6) no. (%)
Best response by 6 cycles: Treatment failure [3, 10]: 2 (7.4) no. (%)
Overall composite remission rate (CR/CRh/CRi) [3, 10]: 11 (40.7, 22.4–61.2) no. (%, 95% CI)
Overall response rate (CR/CRh/CRi/MLFS) [3, 10]: 13 (48.2, 28.7–68.1) no. (%, 95% CI)
Overall composite remission rate (CR/CRi/CRh) ([3]; patients with a TP53 mutation (n = 20), irrespective of group, 9/20): 45%
True CR rate ([3]; patients with mutant TP53 who received 25 mg TP-0903 + decitabine, 3 of 9): 33.3%
